Each structure is given as a SMILES string.

This passage reports IC50 results from BindingDB's records for doi:10.1016/j.bioorg.2016.03.010 (Universiti Teknologi Mara (Uitm), Puncak Alam Campus, 2016).

The experiment concerns the target Urease (Canavalia ensiformis, UniProt P07374). In words: Urease Inhibition Assay. The note with it: pH 6.8; 30 °C. The procedure: To understand the binding modes of the compounds given in Table 1, all ligands were docked into the binding site of Urease enzyme. The top ranked conformations of each ligand were saved in a separate database for further evaluation. The docking results well correlated with the experimental results. The reaction mixtures, comprising 25 uL of enzyme (jack bean urease, Sigma aldrich) solution and 55 uL of buffers containing 100 mM urea, were incubated with 5 uL of the test compounds (0.5 mM concentration) at 30 °C for 15 min in 96-well plates. For the kinetics assessment the urea concentrations were changed from 2 to 24 mM. Urease activity was determined by measuring ammonia production using the indophenol method as described by Weatherburn. Briefly, 45 uL of phenol reagent (1% w/v phenol and 0.005% w/v sodium nitroprusside (Sigma Aldrich)) and, 70 uL of alkali reagent (0.5% w/v NaOH (Sigma Aldrich) and 0.1% active chloride NaOCl (Sigma Aldrich)) were added to each well. The increasing absorbance at 630 nm was measured after 50 min, using a microplate reader (Molecular Device, USA). All reactions were performed in triplicate in a final volume of 200 uL. The results (change in absorbance per min) were processed by using SoftMax-Pro software (molecular Device, USA). The entire assays were performed at pH 6.8.

Sequence of Urease (P07374 whole entry): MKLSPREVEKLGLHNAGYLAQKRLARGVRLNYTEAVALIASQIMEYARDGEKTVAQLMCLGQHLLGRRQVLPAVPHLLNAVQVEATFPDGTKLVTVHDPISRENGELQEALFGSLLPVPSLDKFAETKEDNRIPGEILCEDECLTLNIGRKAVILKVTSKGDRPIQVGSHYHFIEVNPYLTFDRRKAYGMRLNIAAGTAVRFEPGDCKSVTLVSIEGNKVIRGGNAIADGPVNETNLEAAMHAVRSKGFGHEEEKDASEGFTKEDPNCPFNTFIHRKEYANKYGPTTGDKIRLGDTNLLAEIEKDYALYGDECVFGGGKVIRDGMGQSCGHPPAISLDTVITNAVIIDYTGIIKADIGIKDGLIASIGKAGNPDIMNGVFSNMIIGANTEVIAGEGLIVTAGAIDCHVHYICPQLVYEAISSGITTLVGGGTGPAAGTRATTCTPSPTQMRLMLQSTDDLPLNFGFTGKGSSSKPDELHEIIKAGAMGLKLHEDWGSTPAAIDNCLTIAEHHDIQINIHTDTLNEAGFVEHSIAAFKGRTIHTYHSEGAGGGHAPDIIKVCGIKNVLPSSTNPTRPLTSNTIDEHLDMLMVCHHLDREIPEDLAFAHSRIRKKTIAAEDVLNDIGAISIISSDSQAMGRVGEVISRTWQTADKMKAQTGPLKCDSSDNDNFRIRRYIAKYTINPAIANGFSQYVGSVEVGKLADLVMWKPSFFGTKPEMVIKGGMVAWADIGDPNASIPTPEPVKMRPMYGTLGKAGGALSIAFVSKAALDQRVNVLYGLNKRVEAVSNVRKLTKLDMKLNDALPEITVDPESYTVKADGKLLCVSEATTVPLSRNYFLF

`O=C(NNC(=S)Nc1ccccc1)c1ccc(-c2nc3ccccc3s2)cc1` [2-(4-(benzo[d]thiazol-2-yl)benzoyl)-N-phenylhydrazinecarbothioamide (20)]: half-maximal inhibition (IC50) required 19.1 µM. Under `O=C(NNC(=S)Nc1ccccc1Cl)c1ccc(-c2nc3ccccc3s2)cc1` [2-(4-(benzo[d]thiazol-2-yl)benzoyl)-N-(2-chlorophenyl)hydrazinecarbothioamide (3)] stands 4.3 µM; under `O=C(NNC(=S)NC12CC3CC(CC(C3)C1)C2)c1ccc(-c2nc3ccccc3s2)cc1` [N-(adamantan-1-yl)-2-(4-(benzo[d]thiazol-2-yl)benzoyl)hydrazinecarbothioamide (19)], 34.4 µM; under `O=C(NNC(=S)Nc1cccc([N+](=O)[O-])c1)c1ccc(-c2nc3ccccc3s2)cc1` [4-(1,3-benzothiazol-2-yl)-N-{[(3-nitrophenyl)carbamothioyl]amino}benzamide (14)], 5.7 µM. The same measure for `Cc1ccccc1NC(=S)NNC(=O)c1ccc(-c2nc3ccccc3s2)cc1` [2-(4-(benzo[d]thiazol-2-yl)benzoyl)-N-(o-tolyl)hydrazinecarbothioamide (1)]: 7.4 µM.

Regarding `O=C(NNC(=S)Nc1cccc(F)c1)c1ccc(-c2nc3ccccc3s2)cc1` [2-(4-(benzo[d]thiazol-2-yl)benzoyl)-N-(3-fluorophenyl)hydrazinecarbothioamide (12)], 6.3 µM corresponded to half-maximal inhibition (IC50).

Turning to `O=C(NNC(=S)Nc1cccc(Br)c1)c1ccc(-c2nc3ccccc3s2)cc1` [4-(1,3-benzothiazol-2-yl)-N-{[(3-bromophenyl)carbamothioyl]amino}benzamide (13)], the half-inhibitory concentration (IC50) (commonly the midpoint of a concentration-inhibition curve) came to 11.4 µM.

Regarding `O=C(NNC(=S)Nc1ccc(F)cc1)c1ccc(-c2nc3ccccc3s2)cc1` [2-(4-(benzo[d]thiazol-2-yl)benzoyl)-N-(4-fluorophenyl)hydrazinecarbothioamide (6)], the IC50 was 2.5 µM. The same measure for `O=C(NNC(=S)Nc1ccc(Br)cc1)c1ccc(-c2nc3ccccc3s2)cc1` [2-(4-(benzo[d]thiazol-2-yl)benzoyl)-N-(4-bromophenyl)hydrazinecarbothioamide (7)]: 13.7 µM; for `O=C(NNC(=S)Nc1ccc(Cl)cc1)c1ccc(-c2nc3ccccc3s2)cc1` [2-(4-(benzo[d]thiazol-2-yl)benzoyl)-N-(4-chlorophenyl)hydrazinecarbothioamide (8)]: 5.5 µM; for `O=C(NNC(=S)Nc1ccc([N+](=O)[O-])cc1)c1ccc(-c2nc3ccccc3s2)cc1` [2-(4-(benzo[d]thiazol-2-yl)benzoyl)-N-(4-nitrophenyl)hydrazinecarbothioamide (10)]: 1.4 µM. The same measure for `O=C(NNC(=S)Nc1ccccc1F)c1ccc(-c2nc3ccccc3s2)cc1` [2-(4-(benzo[d]thiazol-2-yl)benzoyl)-N-(2-fluorophenyl)hydrazinecarbothioamide (2)]: 3.4 µM; for `COc1ccc(NC(=S)NNC(=O)c2ccc(-c3nc4ccccc4s3)cc2)cc1` [2-(4-(benzo[d]thiazol-2-yl)benzoyl)-N-(4-methoxyphenyl)hydrazinecarbothioamide (9)]: 13.6 µM. Under `Cc1ccc(NC(=S)NNC(=O)c2ccc(-c3nc4ccccc4s3)cc2)cc1` [2-(4-(benzo[d]thiazol-2-yl)benzoyl)-N-(p-tolyl)hydrazinecarbothioamide (5)] stands 10.4 µM.

Compound `Cc1cccc(NC(=S)NNC(=O)c2ccc(-c3nc4ccccc4s3)cc2)c1` [2-(4-(benzo[d]thiazol-2-yl)benzoyl)-N-(m-tolyl)hydrazinecarbothioamide (11)] had an IC50 of 18.7 µM. `O=C(NNC(=S)Nc1ccc(C(F)(F)F)cc1)c1ccc(-c2nc3ccccc3s2)cc1` [2-(4-(benzo[d]thiazol-2-yl)benzoyl)-N-(4-(trifluoromethyl)phenyl)hydrazine-carbothioamide (17)] displayed an IC50 of 1.6 µM. `COc1cccc(NC(=S)NNC(=O)c2ccc(-c3nc4ccccc4s3)cc2)c1` [2-(4-(benzo[d]thiazol-2-yl)benzoyl)-N-(3-methoxyphenyl)hydrazinecarbothioamide (15)] showed a half-maximal inhibitory concentration (IC50) of 28.1 µM. Compound `O=C(NNC(=S)Nc1ccccc1Br)c1ccc(-c2nc3ccccc3s2)cc1` [2-(4-(benzo[d]thiazol-2-yl)benzoyl)-N-(2-bromophenyl)hydrazinecarbothioamide (4)] registered an IC50 of 6.9 µM.
